Results published in article PMC6527222 (PLoS ONE, 2019).
“Also recorded” adds a separate entry of the source. Read-outs that look alike come from different tables or passages of the source.

Legend:
[1] = test system: hairless mice (UV-induced skin thickening); experiment: Eight dose UV exposure, bi-folded epidermal thickness in hairless wild type and β2-AR knockout mice; type: in vivo, mouse; conditions: 5 μM in 200 μL acetone topically every other day, 200 mJ/cm^2 UV, eight irradiations
Experimental: The Western University of Health Sciences’ Institutional Animal Care and Use Committee (WesternU IACUC) approved all animal studies prior to initiating any experiments. The animal studies were carried out under WesternU IACUC recommendations and guidelines, which follow NIH guidelines. Mice had access to water and food ad libitum and housed on a 12-hour light/dark cycle with 35% humidity. Homozygous β1-AR and β2-AR null mice (Adrb1^tm1Bkk Adrb2^tm1Bkk/J Stock Number 003810) were purchased from Jackson Laboratory (Bar Harbor, ME); the double knockout mice were characterized previously. The double knockout mice were bred with C57BL/6J from Jackson Lab to generate a heterozygous F1 generation. The F1 generation was bred together to generate the F2 generation of which 1/16th of the offspring were a β2-AR knockout mouse. SKH-1 mice purchased from Charles River (Wilmington, MA) were bred with the β2-AR knockout mice generating a second heterozygous F1 generation. The F1 generation was bred together to generate the F2 generation of which 1/16th of the offspring were a hairless β2-AR knockout mouse. The F2 generation was backcrossed with a new batch of SKH-1 from Charles River to generate mice more efficiently. The mice used in this study are 75% SKH-1 and 25% mixed background. Following experimentation, and to cull the unused mice in a colony, mice were euthanized via exposure to 32% Isoflurane followed by cervical dislocation to ensure euthanization prior to disposal.
The first two weeks were pretreatment and the second two weeks were during the UV irradiation procedure, but drugs were applied the day after UV exposure to avoid sunscreen effects. All groups involved with UV were irradiated with 200 mJ/cm^2 dose of UV every other day for a total of eight irradiations. Bi-folded epidermal thickness was measured using a digital caliper before drug treatment on non-radiation days. Three skin thickness measurements were taken along the left, middle, and right dorsal epidermal layer, and the mean thickness was recorded for each mouse.

JB6 P+ cells [2] = experiment: Anchorage-independent growth assay in soft agar (EGF-induced JB6 P+ colony formation); type: cell-based, mouse; conditions: for minimal effective concentration / IC50 / Emax: Mus musculus; for minimal effective concentration / IC50 / effect on EGF-mediated transformation of JB6 P+ cells, words: 10 ng/mL EGF; for minimal effective concentration: first concentration with expected statistical decrease, read-out: Soft Agar Assay Log IΔ2*PSD (converted); for Emax: efficacy of inhibition of colony formation, reported if non-toxic
Experimental: Ten ng/mL EGF was used to promote the anchorage-independent growth of JB6 cells. […] Plates were incubated at 37°C, 5% CO2 for 14 days. Colonies with greater than ten cells were counted manually under a microscope. […] Normalization allowed for comparison of data over a range of JB6 P+ cell cultures, passages, and experimental time for the shRNA studies, as well as control for variation in the EGF response, and importantly allowed for a direct comparison to all concentration-response experiments including the toxicity assays. […] All group sizes were determined via previous studies to provide statistically meaningful data. In the soft agar assays, key results were repeated with different JB6 P+ cells to confirm the results. Similarly, the shRNA studies were conducted with three independent concentration-response curves with different JB6 P+ cell stocks. […] For two sample comparisons a t-test was utilized, and when comparing multiple samples a One-, Two-, or Three-Factor ANOVA followed by Tukey-Kramer post hoc test was utilized depending on the data. For all tests, statistical difference was donated when p < 0.05. […] The I[…]*PSD is expressed in x-axis units (log [M]) as is an IC50 and it represents the first concentration where it is expected to observe a statistical decrease in the measured signal. […] Using the formula provided by GraphPad Prism or a straight line for the point-to-point graphs, the X-axis value for point Y was determined. The error is ascribed to this measurement via adding and subtracting the pooled standard deviation (PSD) to/from point Y generating point Y ± PSD. The two new points were then transformed to the X-axis units as was done for point Y creating an asymmetric error in sigmoidal plots. When the error was asymmetric, the larger error value was chosen to err on the conservative side. See S1 Fig for a pictoral explination of the method. The data is presented as I[…]*PSD ± error.

β2-AR [3] = test system: β2-AR; set-up: method as in as printed in each cell (43-46, 48-54, 56-58); conditions: as described in the references; ref (43-46, 48-54, 56-58); cited from earlier work
JB6 P+ cells [4] = experiment: SRB cytotoxicity assay; type: cell-based, mouse; conditions: for SRB Assay Log IΔ2*PSD: NT = no toxicity at any concentration tested; for Toxicity label: Toxic = no 10-fold difference between IΔ2*PSD from soft agar and SRB assays
Experimental: 96-well plates were seeded with 3x10^3 JB6 P+ cells per well and allowed to attach overnight. […] Cell viability was determined using Sulforhodamine B (SRB) assay from Sigma-Aldrich according to the manufacturer’s protocol. Cellular protein content was measured using a Bio-Tek μQuant plate reader with KCJunior software.
Concentration-response curves were normalized so that the EGF positive control on each 96-well plate was set to 100% and the control wells on each plate were set to 0%. Toxicity assays (SRB and MTS) were normalized so that the control on each plate represented 100% viability. Normalization allowed for comparison of data over a range of JB6 P+ cell cultures, passages, and experimental time for the shRNA studies, as well as control for variation in the EGF response, and importantly allowed for a direct comparison to all concentration-response experiments including the toxicity assays. […] All group sizes were determined via previous studies to provide statistically meaningful data. In the soft agar assays, key results were repeated with different JB6 P+ cells to confirm the results. Similarly, the shRNA studies were conducted with three independent concentration-response curves with different JB6 P+ cell stocks. […] For two sample comparisons a t-test was utilized, and when comparing multiple samples a One-, Two-, or Three-Factor ANOVA followed by Tukey-Kramer post hoc test was utilized depending on the data. For all tests, statistical difference was donated when p < 0.05.
The IΔ2*PSD is expressed in x-axis units (log [M]) as is an IC50 and it represents the first concentration where it is expected to observe a statistical decrease in the measured signal.
Using the formula provided by GraphPad Prism or a straight line for the point-to-point graphs, the X-axis value for point Y was determined. The error is ascribed to this measurement via adding and subtracting the pooled standard deviation (PSD) to/from point Y generating point Y ± PSD. The two new points were then transformed to the X-axis units as was done for point Y creating an asymmetric error in sigmoidal plots. When the error was asymmetric, the larger error value was chosen to err on the conservative side. See S1 Fig for a pictoral explination of the method. The data is presented as IΔ2*PSD ± error.

JB6 P+ cells [5] = conditions: cited from earlier work
β2-AR [6] = conditions: given as negative log value; cited from earlier work
α1D-AR = conditions: read-out: Kd towards the α1D-AR; cited from earlier work
[7] = 336 h, 14 days, negative log value, read-out: Soft Agar Assay Log IC50 (converted)
[8] = soft agar, read-out: IC50, inhibition of EGF-mediated transformation

## Oc1cccc2[nH]c3ccccc3c12 [4-OHC, 4-Hydroxycarbazole]
[1]; wild type mice
  effect on UV-induced skin thickening, words: little effect in wild type mice
[1]; β2-AR knockout mice
  effect on UV-induced skin thickening, words: no effect in knockout mice

## CCCC(=O)Nc1ccc(OCC(O)CNC(C)C)c(C(C)=O)c1 (stereo not shown) [Acebutolol]
JB6 P+ cells [2]; 336 h, 14 days
  minimal effective concentration: 49 µM
β2-AR [3]
  Pharmacological property at β2-AR: Partial agonist [56]
JB6 P+ cells [4]; 72 hr
  SRB Assay Log IΔ2*PSD: -3.39 ± 0.70 log [M]
JB6 P+ cells [4]
  Toxicity label: Toxic

## C=CCc1ccccc1OCC(O)CNC(C)C (stereo not shown) [Alprenolol]
JB6 P+ cells [2]; [7]
  IC50: 0.427 µM
JB6 P+ cells [2]
  Emax: 93.8 ± 2.88%
β2-AR [3]
  Pharmacological property at β2-AR: Biased agonist/ activates ERK [43]
JB6 P+ cells [4]; 72 hr
  SRB Assay Log IΔ2*PSD: -4.95 ± 0.06 log [M]

## CC(C)NCC(O)COc1ccc(CC(N)=O)cc1 (stereo not shown) [Atenolol]
JB6 P+ cells [2]
  Emax: 47.9 ± 7.81%
β2-AR [3]
  Pharmacological property at β2-AR: Inverse agonist for cAMP [50]
JB6 P+ cells [5]; 10 ng/mL EGF, negative log value
  Soft Agar Assay Log IC50: -5.04 ± 0.27 [19] log [M]
JB6 P+ cells [5]; previous data
  effect on EGF-mediated transformation of JB6 P+ cells, words: less potent and displayed partial efficacy
JB6 P+ cells [5]; previously published atenolol, read-out: IC50, inhibition of EGF-mediated transformation
  IC50: 9.19 µM

## CC(C)(Cc1c[nH]c2ccccc12)NCC(O)COc1ccccc1C#N (stereo not shown) [Bucindolol]
JB6 P+ cells [2]; [7]
  IC50: 9.33 µM
JB6 P+ cells [2]; 336 h, 14 days
  minimal effective concentration: 1.91 µM
β2-AR [3]
  Pharmacological property at β2-AR: Partial agonist for cAMP and full agonist for ERK [44, 52]
JB6 P+ cells [4]; 72 hr
  SRB Assay Log IΔ2*PSD: -4.84 ± 0.10 log [M]
JB6 P+ cells [4]
  Toxicity label: Toxic
β2-AR [6]
  Log Kd at β2-AR: -8.22 ± 0.1 [52]

## Cc1ccc(Cl)c(OCC(O)CNC(C)(C)C)c1 (stereo not shown) [Bupranolol]
β2-AR [3]
  Pharmacological property at β2-AR: Antagonist, not specified
JB6 P+ cells [4]; 72 hr
  SRB Assay Log IΔ2*PSD: -4.80 ± 0.05 log [M]
JB6 P+ cells [4]
  Toxicity label: Toxic

## CC(C)(C)NCC(O)COc1cccc2[nH]c(=O)[nH]c12 (stereo not shown) [CGP 12177]
JB6 P+ cells [2]; soft agar
  effect on EGF-mediated transformation of JB6 P+ cells, words: do not prevent EGF-induced transformation of JB6 P+ cells
JB6 P+ cells [2]; 336 h, 14 days
  minimal effective concentration: 7.59 µM
β2-AR [3]
  Pharmacological property at β2-AR: Partial agonist [53]
JB6 P+ cells [4]; 72 hr
  SRB Assay Log IΔ2*PSD: -4.46 ± 0.19 log [M]
JB6 P+ cells [4]
  Toxicity label: Toxic

## CC(C)NCC(O)COc1cccc2[nH]c3ccccc3c12 (stereo not shown) [Carazolol]
JB6 P+ cells [2]; 336 h, 14 days
  minimal effective concentration: 7.41 µM
JB6 P+ cells [4]; 72 hr
  SRB Assay Log IΔ2*PSD: -5.00 ± 0.14 log [M]
JB6 P+ cells [4]
  Toxicity label: Toxic

## Cl.O=C1c2ccccc2CCC1CNCCc1ccc(O)cc1 (stereo not drawn) [HEAT HCl, 2-{[β-(4-Hydroxyphenyl)ethyl]aminomethyl}-1-tetralone hydrochloride]
JB6 P+ cells [2]; soft agar
  effect on EGF-mediated transformation of JB6 P+ cells, words: only inhibited colony formation at 1 and 10 μM; also recorded: do not prevent EGF-induced transformation of JB6 P+ cells
JB6 P+ cells [2]; 336 h, 14 days
  minimal effective concentration: 0.145 µM
JB6 P+ cells [4]; 72 hr
  toxicity in SRB assay, words: toxicity at 10 μM
  SRB Assay Log IΔ2*PSD: -5.99 ± 0.03 log [M]
α1D-AR
  Kd: 0.000361 ± 8e-05 µM

## Cc1ccc(OCC(O)C(C)NC(C)C)c2c1CCC2 (stereo not shown) [ICI 118,551]
JB6 P+ cells [2]; [7]
  IC50: 4.47 µM
JB6 P+ cells [2]; 336 h, 14 days
  minimal effective concentration: 3.39 µM
β2-AR [3]
  Pharmacological property at β2-AR: Inverse agonist for cAMP that recruits ±-arr [29, 49]
JB6 P+ cells [4]; 72 hr
  SRB Assay Log IΔ2*PSD: -3.59 ± 0.50 log [M]
JB6 P+ cells [4]
  Toxicity label: Toxic

## CC(C)NCC(O)c1ccc(O)c(O)c1 (stereo not shown) [Isoproterenol]
JB6 P+ cells [2]; soft agar
  effect on EGF-mediated transformation of JB6 P+ cells, words: failed to increase EGF-mediated transformation of JB6 P+ cells
JB6 P+ cells [2]; 336 h, 14 days
  minimal effective concentration: 24.5 µM
β2-AR [3]
  Pharmacological property at β2-AR: Full equipotent agonist [44, 58]
JB6 P+ cells [4]; 72 hr
  SRB Assay Log IΔ2*PSD: -4.77 ± 0.16 log [M]
JB6 P+ cells [4]
  Toxicity label: Toxic

## CC(CCc1ccccc1)NCC(O)c1ccc(O)c(C(N)=O)c1 (stereo not shown) [Labetalol]
JB6 P+ cells [2]; [7]
  IC50: 0.501 µM
JB6 P+ cells [2]
  Emax: 90.3 ± 8.48%
β2-AR [3]
  Pharmacological property at β2-AR: Partial agonist for cAMP and full agonist for ERK [44, 45]

## COCCc1ccc(OCC(O)CNC(C)C)cc1 (stereo not shown) [Metoprolol]
JB6 P+ cells [2]; 336 h, 14 days
  minimal effective concentration: 24.5 µM
β2-AR [3]
  Pharmacological property at β2-AR: Inverse agonist for cAMP [51]
JB6 P+ cells [4]; 72 hr
  SRB Assay Log IΔ2*PSD: -4.52 ± 0.20 log [M]
JB6 P+ cells [4]
  Toxicity label: Toxic

## CC(C)(C)NCC(O)COc1cccc2c1CC(O)C(O)C2 (stereo not shown) [Nadolol]
JB6 P+ cells [2]; soft agar
  effect on EGF-mediated transformation of JB6 P+ cells, words: do not prevent EGF-induced transformation of JB6 P+ cells
JB6 P+ cells [2]; 336 h, 14 days
  minimal effective concentration: 4.68 µM
β2-AR [3]
  Pharmacological property at β2-AR: Inverse agonist for cAMP [44, 57]

## CC(C)NCC(O)c1ccc2ccccc2c1 (stereo not shown) [Pronethalol]
JB6 P+ cells [2]; [8]
  IC50: 2.53 µM
JB6 P+ cells [2]; [7]
  IC50: 2.51 µM
JB6 P+ cells [2]
  Emax: 100%
β2-AR [3]
  Pharmacological property at β2-AR: Inverse agonist for cAMP [48]
JB6 P+ cells [4]; 72 hr
  SRB Assay Log IΔ2*PSD: -4.86 ± 0.23 log [M]

## CC(C)NCC(O)COc1cccc2ccccc12 (stereo not shown) [Propranolol]
JB6 P+ cells [2]; 336 h, 14 days
  minimal effective concentration: 5.5 µM
β2-AR [3]
  Pharmacological property at β2-AR: Inverse agonist for cAMP that recruits ±-arr [29, 51]
JB6 P+ cells [4]; 72 hr
  SRB Assay Log IΔ2*PSD: -4.20 ± 0.11 log [M]

## CC(C)(C)NC[C@H](O)COc1nsnc1N1CCOCC1 [Timolol]
JB6 P+ cells [2]; [8]
  IC50: 3.31 µM
JB6 P+ cells [2]; [7]
  IC50: 3.31 µM
JB6 P+ cells [2]
  Emax: 100%
β2-AR [3]
  Pharmacological property at β2-AR: Inverse agonist for cAMP [48]
JB6 P+ cells [4]; 72 hr
  SRB Assay Log IΔ2*PSD: -4.22 ± 0.34 log [M]
